Type in all cases: cell-based, human
One experiment concerns HUVEC proliferation. The experiment is described as follows: Proliferation assay (BrdU incorporation). The conditions noted are these: type I collagen-coated surface, VEGF, bFGF and PMA. The protocol:
Cells were cultured in above medium in the presence of drugs or vehicle for 4 hr. 5 μl (100 μM) of 5′-bromo-2′-deoxyuridine (BrdU) was added in a final volume of 100 μl/well and cells were incubated for another 20 hr. BrdU incorporation was evaluated by an ELISA kit from Boehringer Mannheim (Indianapolis, Ind.).

In experiment [1] the test system is HUVEC tube formation. The experiment is described as follows: Endothelial tube assay (number of tubes, three-dimensional collagen gels). The conditions noted are these: for IC50: Homo sapiens, HUVEC in collagen gels with bFGF, VEGF and PMA, tubes counted at 48 hr, read-out: inhibition of tube formation, IC50; for inhibition of tube formation (FIG. 3B): at 100 μM; for formation of tube-like structures: endothelial cells in three-dimensional type I collagen lattice. The protocol:
In this model, endothelial cells are suspended in a three-dimensional collagen lattice of type I collagen and undergo rapid morphogenesis. Within 4 hr numerous vacuoles are observed in the majority of endothelial cells; at 24 hr the formation of tube-like structures can be observed and at 48 hr an interconnected network of tube-like structures is observed.
Collagen gels were formed by mixing together ice-cold gelatin solution (10× M199, H2O, 0.53M NaHCO3, 200 mM L-glutamine, type I collagen, 0.1M NaOH, 100:27.2:50:10:750:62.5 by volume) and cells in 1× basal medium at a concentration of 3×10^6 cells/ml at a ratio of 4 volumes gelatin solution: 1 volume of cells. After gelation at 37 for 30 min, the gels were overlaid with IX basal medium consisting of M199 supplemented with 1%FBS, 1× ITS, 2 mM L-glutamine, 50 μg/ml ascorbic acid, 26.5 mM NaHCO3, 100 U/ml penicillin and 100 U/mil streptomycin supplemented with 40 ng/ml BFGF, 40 ng/ml VEGF and 80 nM phorbol myristate acetate (PMA). All drugs were added to the IX basal medium immediately after gelation. To quantitate tube formation, the number of tubes per high power (20× field) was determined 48 hr after addition of the basal medium Five independent fields separated by 100 μm optical sections were assessed for each well. Cytotoxicity was assessed using an XTT kit from Boehringer Mannheim (Indianapolis, Ind.).

The next experiment relates to MMP-2 secretion. The experiment is described as follows: Zymographic assay of HUVEC conditioned media. Here is the method: (§1) The presence of gelatinases MMP-2 and -9 in conditioned media from cultured HUVEC in 3-D type I collagen gels was analyzed by zymography. Media from different treatments or from different time points were concentrated and then 10 μl aliquots were mixed with 2 × sample buffer without reducing agent or heating. Samples were loaded on a 10% polyacrilamide gel containing 0.1% gelatin (Novex, San Diego, Calif.) for electrophoresis. In addition to using regular molecular weight markers the MMP-2 and -9 zymographic standards (Chemicon, Temecula, Calif.) were used as standards for gelatinases. The gels were incubated for 30 min at room temperature in renaturing buffer and in developing buffer for overnight at 37° C., and then stained with 0.25% Coomassie brilliant blue (Sigma). Gelatinase activity was identified as lightly stained or clear bands following destaining.

The next experiment concerns MMP-9 secretion. The experiment is described as follows: Zymographic assay of HUVEC conditioned media. The protocol:
as §1

In experiment [2] the test system is HUVEC tube formation. The experiment is described as follows: Endothelial tube assay of Example 7 (average tube length, 3-D type I collagen gels). The protocol: Collagen gels were formed by mixing together ice-cold gelation solution (IOX M199, H2O, 0.53M NaHCO3, 200 mM L-glutamine, type I collagen, 0.1M NaOH, 100:27.2:50:10:750:62.5 by volume) and cells in 1× basal medium (see below) at a concentration of 3×10^6 cells/ml at a ratio of 4 volumes gelation solution: 1 volume of cells (18). After gelation at 37° C. for 30 min, the gels were overlaid with 1× basal medium consisting of M199 supplemented with […], 1× ITS, 2 mM L-glutamine, […] ascorbic acid, 26.5 mM NaHCO3, 100 U/ml penicillin and 100 U/ml streptomycin supplemented with 40 ng/ml bFGF, 40 ng/ml VEGF, 80 nM PMA or the combination of PMA (80 nM), bFGF and VEGF (40 ng/ml each). All drugs were added to the 1× basal medium immediately after gelation. To quantify tube formation, the average tube length was determined by measuring total tube length (long axis) in three consecutive layers of a low power (10×) field using Openlab software (Improvision Inc, England). Each layer was separated by 100 μm.

The next experiment deals with MMP-9 mRNA. In words: Real time RT-PCR (Taqman) assay in HUVEC, Example 7. The conditions noted are these: for MMP-9 mRNA levels: 40 ng/ml, at 4 h and 24 h. Here is the method:
(§2) Total RNA was extracted from HUVEC cultured in 3-D type I collagen gels for various times in 1× basal medium supplemented with 40 ng/ml bFGF, 40 ng/ml VEGF, […] PMA or the combination of PMA (80 nM), bFGF and VEGF (40 ng/mil each). […] For all mRNAs evaluated a sample of total RNA (100 ng) was added to a 50 μl RT-PCR reaction mixture according to the manufacturer's protocol (Roche Molecular Systems, Inc., Branchburg, N.J.). The thermal cycling conditions included 1 cycle at 48° C. for 30 min, 1 cycle at 95° C. for 10 min, 40 cycles at 95° C. for 15 s, at 60° C. for 1 min, and finally hold at 25° C. for 2 min. Standard curves for expression of each gene were generated by serial dilution of the total RNA isolated from U937 cells. […] Therefore, the relative mRNA expression of each gene was normalized to the level of GAPDH in the same RNA preparation.
(In qPCR the cycle at which signal appears reflects the starting amount.)

A further experiment has as its system MMP-2 mRNA. The experiment is described as above. The conditions noted are these: 100 μM; 24 h. The protocol: as §2
Where [3] appears, read: PMA 0.8, 8, 80 and 800 nM for 24 h.
[4] abbreviates: at concentrations of up to 100 μM.

*1 amine or outer side, *2 acyl side, *3 side chain or, on linkers, in order; H or OH if unused. Where a SMILES comes first, the peptide text is derived from it. Bridges are numbered along the chain shown (N, C = ends). Roman numbers before positions name the chains, in order. [ ]: non-standard residue; d: D form. Actinocin(9to1) = Cc1c2oc3c(C)ccc(C(=O)[*:1])c3nc-2c(C(=O)[*:2])c(N)c1=O; NMeV = CN[C@H](C(=O)O)C(C)C; Sar = CNCC(=O)O

Turning to `CN(CCOc1ccc(CC2SC(=O)NC2=O)cc1)c1ccccn1` (stereo not shown) [BRL49653, 5-[4-[2-[N-methyl-N-(2-pyridyl)amino]ethoxy]benzyl]thiazolidine-2,4-dione], the IC50 with HUVEC proliferation (Homo sapiens, HUVEC, read-out: inhibition of endothelial cell (HUVEC) proliferation, IC50) came to 15.7 µM.
In the case of `CC1=C(/C=C/C(C)=C\C=C\C(C)=C\C(=O)O)C(C)(C)CCC1` [9-cis-retinoic acid], in the experiment on HUVEC tube formation [1] (9-cis-retinoic acid 30 μM alone), the “effect on tube formation” value is “no significant effect”.
For `CCCCCCCCCCCCCC(=O)O[C@@H]1[C@@H](C)[C@@]2(O)[C@@H](C=C(CO)C[C@]3(O)C(=O)C(C)=C[C@@H]23)[C@@H]2C(C)(C)[C@]12OC(C)=O` [PMA, phorbol 12-myristate 13-acetate], the “MMP-2 secretion into the culture medium” value in the experiment on MMP-2 secretion (setting [3]) is listed as “dose-dependent stimulation”. Also, the “active MMP-2 in supernatants compared with either growth factor alone” value with MMP-2 secretion (gelatin zymography, PMA in the absence or presence of FGF and VEGF) was “more active MMP-2”. Also, in the experiment on MMP-9 secretion (setting [3]), the “MMP-9 secretion into the culture medium” value was “dose-dependent stimulation”. For the same compound, the “zymogen form of MMP-9 (92 kD) in culture supernatants” value with MMP-9 secretion (gelatin zymography, PMA or PMA in combination with bFGF and VEGF) is “detected”. In the experiment with HUVEC tube formation [2] (setting [3]), the “concentration giving maximal induction of tube formation” value amounted to 80 nM and the “tube formation (average tube length)” value is “dose-dependent increase”. In addition, in the experiment with MMP-9 mRNA (HUVEC in 3-D collagen gels, PMA 80 nM, bFGF and VEGF 40 ng/ml each), the “increase of MMP-9 mRNA levels between 24 h and 4 h” value was “more than 2 fold”.
`CC1(COc2ccc(CC3SC(=O)NC3=O)cc2)CCCCC1` (stereo not shown) [ciglitizone]: in the experiment on HUVEC tube formation [1], the IC50 was 2.7 µM.
Take `Cc1c(C)c2c(c(C)c1O)CCC(C)(COc1ccc(CC3SC(=O)NC3=O)cc1)O2` (single isomer, unassigned; (+)) [troglitazone, (+)-5-[[4-[(3,4-dihydro-6-hydroxy-2,5,7,8-tetramethyl-2H-1-benzopyran-2-yl)methoxy]phenyl]methyl]-2,4-thiazolidinedione]: the IC50 in the experiment with HUVEC tube formation [1] is 6.2 µM.
Consider `CCCCC[C@H](O)/C=C/[C@H]1[C@H](O)CC(=O)[C@@H]1CCCCCCC(=O)O` [PGE1], for which the “effect on HUVEC proliferation” value in the experiment on HUVEC proliferation is reported as “did not affect”.
Regarding `CCCCCCCC/C=C\CCCCCCCCCCCC(=O)O` [erucic acid], the “inhibition of tube formation” value with HUVEC tube formation [1] (200 μM) is reported as “did not significantly inhibit”. In the experiment on HUVEC tube formation [1], the “inhibition of tube formation (FIG. 3B)” value is “do not inhibit”.
Turning to `C[C@@H]1C[C@@H]([C@H](O)CC2CC(=O)NC(=O)C2)C(=O)[C@@H](C)C1` [cycloheximide], the “formation of tube-like structures” value in the experiment on HUVEC tube formation [1] is “completely block”.
Consider “bFGF: recombinant basic fibroblast growth factor”, for which the “MMP-9 mRNA levels” value with MMP-9 mRNA is recorded as “at or below the limits of detection”.
Consider `Cc1cccc(Nc2cc(Cl)nc(SCC(=O)O)n2)c1C` [WY 14643], for which the MMP-2 protein secretion result in the experiment on MMP-2 secretion (100 μM, 24 h) was “did not alter”. Further, in the experiment with MMP-9 secretion (100 μM, 24 h), the MMP-9 protein secretion entry is on record as “did not alter”. Further, in the experiment with HUVEC tube formation [2] (100 μM, 3-D collagen gels), the HUVEC tube formation result is “do not inhibit”. For the same compound, the “MMP-9 mRNA expression” value with MMP-9 mRNA (100 μM, 24 h) is on record as “did not alter”. Further, the “MMP-2 mRNA expression” value in the experiment with MMP-2 mRNA is reported as “did not alter”. In the experiment with HUVEC tube formation [1], the “inhibition of tube formation (FIG. 3B)” value was “do not inhibit”. Besides, the “inhibition of tube formation” value with HUVEC tube formation [1] (setting [4]) was “did not significantly inhibit”.
As to `CCCc1c(OCCCCc2nnn[nH]2)ccc(C(C)=O)c1O` [LY 171883], in the experiment on HUVEC tube formation [1], the “inhibition of tube formation (FIG. 3B)” value is listed as “do not inhibit”. Also, the “inhibition of tube formation” value with HUVEC tube formation [1] (setting [4]) was “did not significantly inhibit”.
As to `Cc1c2oc3c(C)ccc(C(=O)N[C@@H]4C(=O)N[C@H](C(C)C)C(=O)N5CCC[C@H]5C(=O)N(C)CC(=O)N(C)[C@@H](C(C)C)C(=O)O[C@@H]4C)c3nc-2c(C(=O)N[C@@H]2C(=O)N[C@H](C(C)C)C(=O)N3CCC[C@H]3C(=O)N(C)CC(=O)N(C)[C@@H](C(C)C)C(=O)O[C@@H]2C)c(N)c1=O` [actinomycin D] (I: T[dV]P[Sar][NMeV] / II: T[dV]P[Sar][NMeV]; ester I:1-I:C, II:1-II:C; linker I:N-II:N via Actinocin(9to1)), the “formation of tube-like structures” value with HUVEC tube formation [1] was “completely block”.
With `CCCCC[C@H](O)/C=C/[C@H]1[C@H](O)CC(=O)[C@@H]1C/C=C\CCCC(=O)O` [PGE2], the “effect on HUVEC proliferation” value in the experiment with HUVEC proliferation is on record as “did not affect”.
VEGF: in the experiment with MMP-9 mRNA, the “MMP-9 mRNA levels” value is listed as “at or below the limits of detection”.

The values are drawn from patent US20010036955A1, “Method of inhibiting angiogenesis” (Genentech, Inc., priority 1998, published 2001).
